30 compounds from US20250026766A1, “Thiazolopyridyl Amide Derivatives as DNA Polymerase Theta Inhibitors” (BeiGene, Ltd., priority 2022, published 2025) can be followed below.

The IC50 is the midpoint of a concentration-inhibition curve. Read a low IC50 as higher potency.

Each structure is given as a SMILES string.

The target of the assay is Pol Theta (1-894) (Homo sapiens (Human), UniProt O75417). Kind of assay: Biochemical Pol Theta (1-894) ATPase IC50 assay (ADP-Glo, ssDNA substrate). The following applies: ADP-Glo assay with ssDNA substrate, room temperature. A digest of the protocol: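 His-tagged human Pol Theta 1-894 from Sf9 baculovirus cells, 2× enzyme solution at 12.5 nM, assayed with ssDNA substrate at room temperature in 40 mM Tris pH 7.5, 20 mM MgCl2, 1 mM DTT, 0.01% BSA, 0.05% Tween-20.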
Chain of Pol Theta (1-894) (O75417 1-894): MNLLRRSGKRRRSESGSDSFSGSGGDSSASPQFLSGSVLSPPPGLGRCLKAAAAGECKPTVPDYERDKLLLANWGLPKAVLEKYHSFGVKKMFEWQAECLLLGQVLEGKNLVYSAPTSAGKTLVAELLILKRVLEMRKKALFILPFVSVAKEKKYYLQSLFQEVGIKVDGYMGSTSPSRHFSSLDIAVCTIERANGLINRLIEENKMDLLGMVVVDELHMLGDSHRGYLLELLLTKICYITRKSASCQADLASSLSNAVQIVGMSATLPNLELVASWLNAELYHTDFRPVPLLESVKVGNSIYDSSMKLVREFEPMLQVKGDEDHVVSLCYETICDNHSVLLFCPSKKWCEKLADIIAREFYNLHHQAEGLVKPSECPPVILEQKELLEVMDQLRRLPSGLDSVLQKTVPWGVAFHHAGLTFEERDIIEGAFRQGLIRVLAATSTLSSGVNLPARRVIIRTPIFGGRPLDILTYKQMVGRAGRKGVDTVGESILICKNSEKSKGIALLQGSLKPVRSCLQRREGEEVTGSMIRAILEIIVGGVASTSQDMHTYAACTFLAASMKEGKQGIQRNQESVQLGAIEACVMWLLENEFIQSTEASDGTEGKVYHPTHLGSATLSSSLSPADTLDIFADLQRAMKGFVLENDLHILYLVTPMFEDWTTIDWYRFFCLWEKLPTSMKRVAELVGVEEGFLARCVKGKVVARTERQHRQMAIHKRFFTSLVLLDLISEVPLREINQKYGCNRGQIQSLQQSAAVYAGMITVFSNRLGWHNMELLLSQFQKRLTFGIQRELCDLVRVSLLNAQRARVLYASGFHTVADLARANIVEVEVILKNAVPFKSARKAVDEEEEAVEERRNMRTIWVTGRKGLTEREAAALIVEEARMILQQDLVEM
(ADP-Glo turns the ADP formed in a reaction into a luminescent signal.)
`COc1ccccc1-c1cnncc1C(=O)Nc1nc2ccc(-c3ccc(N4COCC4=O)cc3)nc2s1` [Example 149, 5-(2-methoxyphenyl)-N-(5-(4-(4-oxooxazolidin-3-yl)phenyl)thiazolo[5,4-b]pyridin-2-yl)pyridazine-4-carboxamide] showed a half-inhibitory concentration (IC50) of 18 nM.
Turning to `COc1ccccc1-c1cnncc1C(=O)Nc1nc2ccc(-c3c(C)cc(Cl)cc3Cl)nc2s1` [Example 150, N-(5-(2,4-dichloro-6-methylphenyl)thiazolo[5,4-b]pyridin-2-yl)-5-(2-methoxyphenyl)pyridazine-4-carboxamide], 43 nM corresponded to half-maximal inhibition (IC50).
`COc1ccc(C#N)cc1-c1cc(C)ncc1C(=O)Nc1nc2ccc(-c3ccc(C(=O)N4CCC4)c(C)c3)nc2s1` [Example 151, N-(5-(4-(azetidine-1-carbonyl)-3-methylphenyl)thiazolo[5,4-b]pyridin-2-yl)-4-(5-cyano-2-methoxyphenyl)-6-methylnicotinamide] had an IC50 of 73 nM. This IC50 is about 1.7-fold higher than that of the compound before.
For `COc1ccccc1-c1cnncc1C(=O)Nc1nc2ccc(Oc3ccc(C#N)cc3)nc2s1` [Example 152, N-(5-(4-cyanophenoxy)thiazolo[5,4-b]pyridin-2-yl)-5-(2-methoxyphenyl)pyridazine-4-carboxamide] the value was 21 nM; for `COc1cccc(C#N)c1-c1cc(C)ncc1C(=O)Nc1nc2ccc(-c3ccc(C#N)cc3)nc2s1` [Example 153, 4-(2-cyano-6-methoxyphenyl)-N-(5-(4-cyanophenyl)thiazolo[5,4-b]pyridin-2-yl)-6-methylnicotinamide], 57 nM.
As for `COc1cc(Cl)ccc1Oc1ccc2nc(NC(=O)c3cnncc3-c3ccccc3OC)sc2n1` [Example 154, N-(5-(4-chloro-2-methoxyphenoxy)thiazolo[5,4-b]pyridin-2-yl)-5-(2-methoxyphenyl)pyridazine-4-carboxamide], it took 60 nM to reach half-maximal inhibition (IC50). The IC50 values of the last two compounds are within 1.5-fold of each other.
For `COc1ccccc1-c1cnncc1C(=O)Nc1nc2ccc(Oc3ccc(Cl)cc3F)nc2s1` [Example 155, N-(5-(4-chloro-2-fluorophenoxy)thiazolo[5,4-b]pyridin-2-yl)-5-(2-methoxyphenyl)pyridazine-4-carboxamide] the value was 73 nM.
`COc1ccc([N+](=O)[O-])cc1-c1ccncc1C(=O)Nc1nc2ccc(-c3ccc(C#N)cc3)nc2s1` [Example 156, N-(5-(4-cyanophenyl)thiazolo[5,4-b]pyridin-2-yl)-4-(2-methoxy-5-nitrophenyl)nicotinamide]: 14 nM corresponded to half-maximal inhibition (IC50).
Compound `Cc1cc(-c2cc(S(C)(=O)=O)ccc2C2CC2)c(C(=O)Nc2nc3ccc(-c4ccc(C#N)cc4)nc3s2)cn1` [Example 157, N-(5-(4-cyanophenyl)thiazolo[5,4-b]pyridin-2-yl)-4-(2-cyclopropyl-5-(methylsulfonyl)phenyl)-6-methylnicotinamide] returned a half-maximal inhibitory concentration (IC50) of 70 nM. Against the preceding compound, the IC50 is about 5-fold higher.
Turning to `COc1ccccc1-c1cnncc1C(=O)Nc1nc2ccc(-c3ccc(C#N)cn3)nc2s1` [Example 158, N-(5-(5-cyanopyridin-2-yl)thiazolo[5,4-b]pyridin-2-yl)-5-(2-methoxyphenyl)pyridazine-4-carboxamide], the midpoint of inhibition, the IC50, lay at 8.2 nM. This IC50 lies about 8.5-fold lower than the previous one.
For `COc1ccc(C#N)cc1-c1cc(C)ncc1C(=O)Nc1nc2ccc(-c3ccc(C#N)cn3)nc2s1` [Example 159, 4-(5-cyano-2-methoxyphenyl)-N-(5-(5-cyanopyridin-2-yl)thiazolo[5,4-b]pyridin-2-yl)-6-methylnicotinamide] the value was 5 nM; for `COc1ccccc1-c1cnncc1C(=O)Nc1nc2ccc(Oc3ccc(S(C)(=O)=O)cc3)nc2s1` [Example 160, 5-(2-methoxyphenyl)-N-(5-(4-(methylsulfonyl)phenoxy)thiazolo[5,4-b]pyridin-2-yl)pyridazine-4-carboxamide], 63 nM; for `COc1cc(-c2ccc3nc(NC(=O)c4cnc(C)cc4-c4cc(C#N)ccc4OC)sc3n2)ccc1C#N` [Example 161, 4-(5-cyano-2-methoxyphenyl)-N-(5-(4-cyano-3-methoxyphenyl)thiazolo[5,4-b]pyridin-2-yl)-6-methylnicotinamide], 36 nM.
For `COc1ccccc1-c1cnncc1C(=O)Nc1nc2ccc(CCc3ccc(Cl)cn3)nc2s1` [Example 162, N-(5-(2-(5-chloropyridin-2-yl)ethyl)thiazolo[5,4-b]pyridin-2-yl)-5-(2-methoxyphenyl)pyridazine-4-carboxamide] the value was 29 nM; for `COc1ccc(C#N)cc1-c1cc(C)ncc1C(=O)Nc1nc2ccc(-c3ccc(N4C(=O)COC4=O)c(C)c3)nc2s1` [Example 163, 4-(5-cyano-2-methoxyphenyl)-N-(5-(4-(2,4-dioxooxazolidin-3-yl)-3-methylphenyl)thiazolo[5,4-b]pyridin-2-yl)-6-methylnicotinamide], 28 nM.
For `COc1ccc(C#N)cc1-c1cc(C)ncc1C(=O)Nc1nc2ccc(-c3ccc(N4CCCC4=O)nc3)nc2s1` [Example 164, 4-(5-cyano-2-methoxyphenyl)-6-methyl-N-(5-(6-(2-oxopyrrolidin-1-yl)pyridin-3-yl)thiazolo[5,4-b]pyridin-2-yl)nicotinamide] the value was 37 nM.
`COc1ccccc1-c1cnncc1C(=O)Nc1nc2ccc(-c3ccc(NC(C)=O)c(C)c3)nc2s1` [Example 165, N-(5-(4-acetamido-3-methylphenyl)thiazolo[5,4-b]pyridin-2-yl)-5-(2-methoxyphenyl)pyridazine-4-carboxamide] returned an IC50 of 8.9 nM.
For `COc1ccc(C#N)cc1-c1cc(C)ncc1C(=O)Nc1nc2ccc(-c3ccc(C#N)c(C)c3)nc2s1` [Example 166, 4-(5-cyano-2-methoxyphenyl)-N-(5-(4-cyano-3-methylphenyl)thiazolo[5,4-b]pyridin-2-yl)-6-methylnicotinamide] the value was 13 nM; for `Cc1cc(-c2cc(C#N)ccc2C2CC2)c(C(=O)Nc2nc3ccc(-c4ccc(C#N)cc4)nc3s2)cn1` [Example 167, 4-(5-cyano-2-cyclopropylphenyl)-N-(5-(4-cyanophenyl)thiazolo[5,4-b]pyridin-2-yl)-6-methylnicotinamide], 15 nM.
For `COc1ccc(C#N)cc1-c1cc(C)ncc1C(=O)Nc1nc2ccc(-c3ccc(CC#N)cn3)nc2s1` [Example 168, 4-(5-cyano-2-methoxyphenyl)-N-(5-(5-(cyanomethyl)pyridin-2-yl)thiazolo[5,4-b]pyridin-2-yl)-6-methylnicotinamide] the value was 4.4 nM.
`COc1ccc(C#N)cc1-c1cc(C)ncc1C(=O)Nc1nc2ccc(-c3ccc(C#N)cc3C)nc2s1` [Example 169, 4-(5-cyano-2-methoxyphenyl)-N-(5-(4-cyano-2-methylphenyl)thiazolo[5,4-b]pyridin-2-yl)-6-methylnicotinamide] had an IC50 of 7.5 nM.
For `COc1ccc(C#N)cc1-c1cc(C)ncc1C(=O)Nc1nc2ccc(-c3ccc(OC4CNC4)cc3)nc2s1` [Example 170, N-(5-(4-(azetidin-3-yloxy)phenyl)thiazolo[5,4-b]pyridin-2-yl)-4-(5-cyano-2-methoxyphenyl)-6-methylnicotinamide] the value was 26 nM; for `COc1ccc(C#N)cc1-c1cc(C)ncc1C(=O)Nc1nc2ccc(-c3ccc(CC#N)c(C)c3)nc2s1` [Example 171, 4-(5-cyano-2-methoxyphenyl)-N-(5-(4-(cyanomethyl)-3-methylphenyl)thiazolo[5,4-b]pyridin-2-yl)-6-methylnicotinamide], 13 nM; for `COc1ccc(C#N)cc1-c1cc(C)ncc1C(=O)Nc1nc2ccc(-c3ccc(CC#N)cc3C)nc2s1` [Example 172, 4-(5-cyano-2-methoxyphenyl)-N-(5-(4-(cyanomethyl)-2-methylphenyl)thiazolo[5,4-b]pyridin-2-yl)-6-methylnicotinamide], 10 nM.
For `Cc1cc(-c2cc(C#N)c(=O)n(C)c2C)c(C(=O)Nc2nc3ccc(-c4ccc(C#N)cc4)nc3s2)cn1` [Example 173, 5-cyano-N-(5-(4-cyanophenyl)thiazolo[5,4-b]pyridin-2-yl)-1,2,6′-trimethyl-6-oxo-1,6-dihydro-[3,4′-bipyridine]-3′-carboxamide] the value was 26 nM; for `COc1ccc(C#N)cc1-c1cc(C)ncc1C(=O)Nc1nc2ccc(-c3ccc(CN4CCCC4=O)cc3C)nc2s1` [Example 174, 4-(5-cyano-2-methoxyphenyl)-6-methyl-N-(5-(2-methyl-4-((2-oxopyrrolidin-1-yl)methyl)phenyl)thiazolo[5,4-b]pyridin-2-yl)nicotinamide], 11 nM.
Regarding `COc1ccc(S(C)(=O)=O)cc1-c1cc(C)ncc1C(=O)Nc1nc2ccc(-c3ccc(C(N)=O)c(C)c3)nc2s1` [Example 175, N-(5-(4-carbamoyl-3-methylphenyl)thiazolo[5,4-b]pyridin-2-yl)-4-(2-methoxy-5-(methylsulfonyl)phenyl)-6-methylnicotinamide], the IC50 worked out at 8.4 nM.
For `COc1ccc(C#N)cc1-c1cc(CO)ncc1C(=O)Nc1nc2ccc(-c3ccc(C#N)cc3C)nc2s1` [Example 176, 4-(5-cyano-2-methoxyphenyl)-N-(5-(4-cyano-2-methylphenyl)thiazolo[5,4-b]pyridin-2-yl)-6-(hydroxymethyl)nicotinamide] the value was 9.1 nM.
Compound `COc1ccc(C#N)cc1-c1cc(C)ncc1C(=O)Nc1nc2ccc(-c3ccc([C@@H](C)C#N)cc3)nc2s1` [Example 177A, (R)-4-(5-cyano-2-methoxyphenyl)-N-(5-(4-(1-cyanoethyl)phenyl)thiazolo[5,4-b]pyridin-2-yl)-6-methylnicotinamide] came in with an IC50 of 25 nM. Against the preceding compound, the IC50 is about 2.7-fold higher.
For `COc1ccc(C#N)cc1-c1cc(C)ncc1C(=O)Nc1nc2ccc(-c3ccc([C@H](C)C#N)cc3)nc2s1` [Example 177B, (S)-4-(5-cyano-2-methoxyphenyl)-N-(5-(4-(1-cyanoethyl)phenyl)thiazolo[5,4-b]pyridin-2-yl)-6-methylnicotinamide] the value was 13 nM.
